≈ marks a conversion by molar mass, not a printed value. Like-named read-outs stand apart in the source and are kept apart here.
What was measured:
[1] = tested on: Sarcina lutea PCl 1001; assay: M.I.C. by standard serial dilution method; type: cell-based; settings: Micrococcus luteus, PCL1001, nutrient agar, 37° C, 18 hours, read-out: minimum inhibitory concentration (M.I.C.)
Protocol: (§1) These particular compounds, that is, 1-n-(α-hydroxy-ω-aminoalkanoyl)-3'-deoxy-5-O-pentofuranosylneamines according to the aforesaid general formula (I) have useful antibacterial activity against a wide variety of bacteria, including gram-negative bacteria and gram-positive bacteria. The minimum inhibitory concentration (M.I.C.) (mcg/ml) of these compounds against various organisms was determined by a standard serial dilution method at an incubation temperature of 37° C, the estimation being made after 18 hours incubation or each test organism, except that the incubation time was 48 hours for Mycobacterium smegmatis. The incubation medium used was nutrient agar.

[2] = tested on: Escherichia coli K-12 LA 290 R55; assay: M.I.C. by standard serial dilution method; type: cell-based; settings: K12LA290R55, 18 h, read-out: minimum inhibitory concentration (M.I.C.)
Protocol: as §1

[3] = tested on: Pseudomonas aeruginosa TI-13; assay: M.I.C. by standard serial dilution method; type: cell-based; settings: TI13, P. aeruginosa TI-13, nutrient agar, 37° C, 18 hours, read-out: minimum inhibitory concentration (M.I.C.)
Protocol: as §1

[4] = tested on: Escherichia coli K-12 LA 290 R64; assay: M.I.C. by standard serial dilution method; type: cell-based; settings: K12LA290R64, 18 h, read-out: minimum inhibitory concentration (M.I.C.)
Protocol: as §1

[5] = tested on: Pseudomonas aeruginosa GN 315; assay: M.I.C. by standard serial dilution method; type: cell-based; settings: GN315, P. aeruginosa GN 315, nutrient agar, 37° C, 18 hours, read-out: minimum inhibitory concentration (M.I.C.)
Protocol: as §1

[6] = tested on: Mycobacterium smegmatis ATCC 607; assay: M.I.C. by standard serial dilution method; type: cell-based; settings: Mycolicibacterium smegmatis, ATCC607, nutrient agar, 37° C, 48 hours, read-out: minimum inhibitory concentration (M.I.C.)
Protocol: as §1

[7] = tested on: Proteus rettgeri GN 466; assay: M.I.C. by standard serial dilution method; type: cell-based; settings: Providencia rettgeri, GN466; Proteus rettgeri GN 466; nutrient agar, 37° C, 18 hours; read-out: minimum inhibitory concentration (M.I.C.)
Protocol: as §1

[8] = tested on: Pseudomonas aeruginosa A3; assay: M.I.C. by standard serial dilution method; type: cell-based; settings: P. aeruginosa A3, nutrient agar, 37° C, 18 hours, read-out: minimum inhibitory concentration (M.I.C.)
Protocol: as §1

[9] = tested on: Klebsiella pneumoniae PCI 602; assay: M.I.C. by standard serial dilution method; type: cell-based; settings: read-out: minimum inhibitory concentration (M.I.C.)
Protocol: as §1

[10] = tested on: Escherichia coli K-12; assay: M.I.C. by standard serial dilution method; type: cell-based; settings: read-out: minimum inhibitory concentration (M.I.C.)
Protocol: as §1

[11] = tested on: Salmonella typhosa T-63; assay: M.I.C. by standard serial dilution method; type: cell-based; settings: Salmonella enterica, 18 h, read-out: minimum inhibitory concentration (M.I.C.)
Protocol: as §1

[12] = tested on: Escherichia coli K-12 W677; assay: M.I.C. by standard serial dilution method; type: cell-based; settings: read-out: minimum inhibitory concentration (M.I.C.)
Protocol: as §1

[13] = tested on: Staphylococcus aureus FDA 209P; assay: M.I.C. by standard serial dilution method; type: cell-based; settings: FDA209P, S. aureus FDA 209P, nutrient agar, 37° C, 18 hours, read-out: minimum inhibitory concentration (M.I.C.)
Protocol: as §1

[14] = tested on: Pseudomonas aeruginosa No. 12; assay: M.I.C. by standard serial dilution method; type: cell-based; settings: P. aeruginosa No. 12, nutrient agar, 37° C, 18 hours, read-out: minimum inhibitory concentration (M.I.C.)
Protocol: as §1

[15] = tested on: Escherichia coli K-12 ML 1630; assay: M.I.C. by standard serial dilution method; type: cell-based; settings: K12ML1630, E. coli K-12 ML 1630, nutrient agar, 37° C, 18 hours, read-out: minimum inhibitory concentration (M.I.C.)
Protocol: as §1

[16] = tested on: Klebsiella pneumoniae Type 22, No. 3038; assay: M.I.C. by standard serial dilution method; type: cell-based; settings: read-out: minimum inhibitory concentration (M.I.C.)
Protocol: as §1

[17] = tested on: Escherichia coli K-12 LA 290 R56; assay: M.I.C. by standard serial dilution method; type: cell-based; settings: K12LA290R56, 18 h, read-out: minimum inhibitory concentration (M.I.C.)
Protocol: as §1

[18] = tested on: Proteus rettgeri GN 311; assay: M.I.C. by standard serial dilution method; type: cell-based; settings: Providencia rettgeri, GN311, nutrient agar, 37° C, 18 hours, read-out: minimum inhibitory concentration (M.I.C.)
Protocol: as §1

[19] = tested on: Escherichia coli K-12 ML 1410; assay: M.I.C. by standard serial dilution method; type: cell-based; settings: K12ML1410, E. coli K-12 ML 1410, nutrient agar, 37° C, 18 hours, read-out: minimum inhibitory concentration (M.I.C.)
Protocol: as §1

[20] = tested on: Pseudomonas aeruginosa 99; assay: M.I.C. by standard serial dilution method; type: cell-based; settings: P. aeruginosa 99, nutrient agar, 37° C, 18 hours, read-out: minimum inhibitory concentration (M.I.C.)
Protocol: as §1

[21] = tested on: Bacillus subtilis B-558; assay: M.I.C. by standard serial dilution method; type: cell-based; settings: read-out: minimum inhibitory concentration (M.I.C.)
Protocol: as §1

[22] = tested on: Escherichia coli K-12 JR66/W677; assay: M.I.C. by standard serial dilution method; type: cell-based; settings: K12JR66/W677, 18 h, read-out: minimum inhibitory concentration (M.I.C.)
Protocol: as §1

[23] = tested on: Escherichia coli NIHJ; assay: M.I.C. by standard serial dilution method; type: cell-based; settings: read-out: minimum inhibitory concentration (M.I.C.)
Protocol: as §1

[24] = tested on: Escherichia coli K-12 ML 1629; assay: M.I.C. by standard serial dilution method; type: cell-based; settings: read-out: minimum inhibitory concentration (M.I.C.)
Protocol: as §1

[25] = tested on: Escherichia coli K-12 ML 1410 R81; assay: M.I.C. by standard serial dilution method; type: cell-based; settings: 18 h, read-out: minimum inhibitory concentration (M.I.C.)
Protocol: as §1

[26] = tested on: kanamycin-resistant bacteria; settings: in words, prior work; cited from earlier work

SMILES | MIC [1] [µg/mL] | MIC [2] [µg/mL] | MIC [3] [µg/mL] | MIC [4] [µg/mL] | MIC [5] [µg/mL] | MIC [6] [µg/mL] | MIC [7] [µg/mL] | MIC [8] [µg/mL] | MIC [11] [µg/mL] | MIC [13] [µg/mL] | MIC [14] [µg/mL] | MIC [15] [µg/mL] | MIC [17] [µg/mL] | MIC [18] [µg/mL] | MIC [19] [µg/mL] | MIC [20] [µg/mL] | MIC [22] [µg/mL] | MIC [25] [µg/mL] | antibacterial activity against resistant bacteria [26] | other results
NCC[C@H](O)C(=O)N[C@@H]1C[C@H](N)[C@@H](O[C@H]2O[C@H](CN)[C@@H](O)C[C@H]2N)[C@H](O[C@@H]2O[C@@H](CO)[C@H](O)[C@H]2O)[C@H]1O [Compound No. 3, 1-N-((S)-4-amino-2-hydroxybutyryl)-3'-deoxy-5-O-α-L-arabinofuranosylneamine] | 25 (≈ 46.3 µM) | 1.56 (≈ 2.89 µM) | 25 (≈ 46.3 µM) | 0.2 (≈ 0.371 µM) | > 100 | 0.2 (≈ 0.371 µM) | 0.78 (≈ 1.45 µM) | 0.78 (≈ 1.45 µM) | 0.78 (≈ 1.45 µM) | 0.39 (≈ 0.723 µM) | 12.5 (≈ 23.2 µM) | 0.78 (≈ 1.45 µM) | 0.39 (≈ 0.723 µM) | 3.12 (≈ 5.78 µM) | 0.78 (≈ 1.45 µM) | 6.25 (≈ 11.6 µM) | 1.56 (≈ 2.89 µM) | 1.56 (≈ 2.89 µM) |  | MIC ([9]; PCI602, K. pneumoniae PCI 602, nutrient agar, 37° C, 18 hours): 0.39 µg/mL (≈ 0.723 µM); MIC ([10]; K12, E. coli K-12, nutrient agar, 37° C, 18 hours): 0.39 µg/mL (≈ 0.723 µM); MIC ([12]; K12W677, E. coli K-12 W677, nutrient agar, 37° C, 18 hours): 0.39 µg/mL (≈ 0.723 µM); MIC ([16]; K. pneumoniae Type 22, No. 3038, nutrient agar, 37° C, 18 hours): 0.39 µg/mL (≈ 0.723 µM); MIC ([21]; B558, B. subtilis B-558, nutrient agar, 37° C, 18 hours): 0.2 µg/mL (≈ 0.371 µM); MIC ([23]; E. coli NIHJ, nutrient agar, 37° C, 18 hours): 0.78 µg/mL (≈ 1.45 µM); MIC ([24]; K12ML1629, E. coli K-12 ML 1629, nutrient agar, 37° C, 18 hours): 0.39 µg/mL (≈ 0.723 µM)
NCC(O)C(=O)N[C@@H]1C[C@H](N)[C@@H](O[C@H]2O[C@H](CN)[C@@H](O)C[C@H]2N)[C@H](O[C@@H]2O[C@H](CO)[C@H](O)[C@H]2O)[C@H]1O (stereo partly drawn) [Compound No. 1, 1N-((RS)-3-amino-2-hydroxypropionyl)-3'-deoxy-5-O-β-D-xylofuranosylneamine] | 25 (≈ 47.6 µM) | 3.12 (≈ 5.94 µM) | 25 (≈ 47.6 µM) | 1.56 (≈ 2.97 µM) | > 100 | 0.39 (≈ 0.742 µM) | 3.12 (≈ 5.94 µM) | 6.25 (≈ 11.9 µM) | 1.56 (≈ 2.97 µM) | 3.12 (≈ 5.94 µM) | 12.5 (≈ 23.8 µM) | 3.12 (≈ 5.94 µM) | 3.12 (≈ 5.94 µM) | 12.5 (≈ 23.8 µM) | 3.12 (≈ 5.94 µM) | 12.5 (≈ 23.8 µM) | 3.12 (≈ 5.94 µM) | 6.25 (≈ 11.9 µM) |  | MIC ([9]; PCI602, 18 h): 1.56 µg/mL (≈ 2.97 µM); MIC ([10]; K12, 18 h): 1.56 µg/mL (≈ 2.97 µM); MIC ([12]; K12W677, 18 h): 1.56 µg/mL (≈ 2.97 µM); MIC ([16]; 18 h): 1.56 µg/mL (≈ 2.97 µM); MIC ([21]; B558, 18 h): 1.56 µg/mL (≈ 2.97 µM); MIC ([23]; 18 h): 1.56 µg/mL (≈ 2.97 µM); MIC ([24]; K12ML1629, 18 h): 1.56 µg/mL (≈ 2.97 µM)
NCC(O)C(=O)N[C@@H]1C[C@H](N)[C@@H](O[C@H]2O[C@H](CN)CC[C@H]2N)[C@H](O)[C@H]1O[C@H]1O[C@H](CO)[C@@H](O)[C@H](N)[C@H]1O (some centres unmarked) [1-N-isoseryl-DKB] |  |  |  |  |  |  |  |  |  |  |  |  |  |  |  |  |  |  | active against the kanamycin-resistant bacteria | 
NC[C@H]1O[C@H](O[C@H]2[C@H](O)[C@@H](O[C@H]3O[C@H](CO)[C@@H](O)[C@H](N)[C@H]3O)[C@H](N)C[C@@H]2N)[C@H](O)C[C@@H]1O [3'-deoxykanamycin A] |  |  |  |  |  |  |  |  |  |  |  |  |  |  |  |  |  |  | high antibacterial activity against the above-mentioned resistant bacteria | 
NCCC(O)C(=O)N[C@@H]1C[C@H](N)[C@@H](O[C@H]2O[C@H](CN)CC[C@H]2N)[C@H](O)[C@H]1O[C@H]1O[C@H](CO)[C@@H](O)[C@H](N)[C@H]1O (some centres unmarked) [1-N-(4-amino-2-hydroxybutyryl)-DKB] |  |  |  |  |  |  |  |  |  |  |  |  |  |  |  |  |  |  | active against the kanamycin-resistant bacteria | 
